Measured values from patent US20240350430A1, “GROWTH INHIBITOR OF METASTATIC HUMAN PROSTATE CANCER CELLS” (Watanabe Oyster Laboratory Co., Ltd., priority 2021, published 2024).

Assays:
Type in all cases: cell-based, human
PC-3 cells = test: Cell invasion, Transwell chambers with Matrigel, PC-3 cells; settings: DHMBA 1, 10, or 100 μM, 24 hours
Procedure: (§1) The cell invasion activity of the prostate cancer PC-3 and DU-145 cells was measured using Transwell chambers (the catalogue number CLS3464-48EA of Corning, Life Sciences, USA). A chamber was placed in each well of the 24-hole plate. 50 μl of Matrigel (Corning Life Sciences, Cat. No. 356230, USA) was added to the upper surface of the chambers. After drying the gel, 500 μl of a suspension of the PC-3 or DU-145 cells (the cell number of 2.5×10^4/ml, the DMEM not containing FBS) was added to the upper surface of the gel. This cell suspension contained the DHMBA (0, 1, 10, or 100 μM). After the addition of the cell suspension to the chambers, it was incubated for one hour to cause the cells to adhere. 0.75 ml of the culture fluid not containing the FBS and a culture fluid containing 10% of FBS were added to the lower surface of the chambers. The cells on the plate were cultured under 5% of CO2, 95% of air, at 37° C., for 24 hours. […] After the drying, the number of the stained cells was counted by the microscope (Olympus MTV-3, Olympus Corporation, Tokyo, Japan). […]
(§2) The cell invasion activities of the prostate cancer PC-3 and DU-145 cells were measured using the Transwell chambers. […] After the drying, the number of the stained cells was counted by the microscope (Olympus MTV-3, Olympus Corporation, Tokyo, Japan). […]

DU-145 cells [1] = test: Cell invasion, Transwell chambers with Matrigel, DU-145 cells; settings: DHMBA 1, 10, or 100 μM, 24 hours
Procedure: as §1, §2

DU-145 cells [2] = test: Colony formation of DU-145 cells; settings: DHMBA 1 or 10 μM, nine days
Procedure: The PC-3 and DU-145 cells (1×10^3/in 2 ml of a culture fluid per hole using a six-hole plate) were cultured in a DMEM culture fluid (containing 10% of FBS, 1% of P/S, and 1% of fungizone) containing the DHMBA (1 and 10 μM) under 5% of CO2, at 37° C., for nine days. After the culture, the culture fluid was removed, the cells were washed twice with PBS, 95% of methanol (0.5 ml) was added, and the cells were fixed for 20 minutes. After the fixation, each well of a culture dish was washed four times with PBS (1 ml), and after that 0.5% of crystal violet (0.5 ml) was added, and the product was left for two hours at room temperature for staining. After the stain solution was washed to be removed, drying was performed, and after that colonies containing 50 or more cells were counted by a microscope (Olympus MTV-3, Olympus Corporation, Tokyo, Japan).
FIG. 2(A) is a drawing in which the DU-145 cells (1×10^3 cells/per well of a six-well plate) were cultured under 5% of CO2, at 37° C., for nine days in a DMEM culture fluid (containing 10% of FBS, 1% of P/S, and 1% of fungizone) containing the DHMBA (1 or 10 μM).
FIG. 2(B) is a diagram of counting the number of colonies.

COc1c(O)cc(CO)cc1O [DHMBA, 3,5-dihydroxy-4-methoxybenzyl alcohol]
significantly inhibited: invasion (PC-3 cells) | invasion (DU-145 cells [1]) | colony formation (DU-145 cells [2])
